Consider 13 compounds from US10392383B2, “3-(1H-benzo[d]imidazol-2-yl)-1H-pyrazolo[4,3-b]pyridines and therapeutic uses thereof” (Samumed, LLC, priority 2015, dated 2019).

What all share (type): cell-based
Assay [1] concerns Wnt activity (Sp5-Luc reporter, Wnt-responsive promoter) in SW480 colon carcinoma cells. Nature of the assay: Wnt activity screening assay: Sp5-Luc reporter gene assay in SW480 cells. The conditions noted are these: Homo sapiens, overnight incubation, 10-point curve starting from 10 μM. In short, it runs like this:
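Wnt-driven firefly luciferase in SW480 colon carcinoma cells reports pathway activity after overnight compound exposure (10 μM top concentration, 3-fold steps). Signal is normalized to DMSO controls.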
A general note: In a reporter assay the amount or activity of a reporter protein is the signal.

Another assay relates to SW480 colon cancer cells. Nature of the assay: Cell viability assay (CellTiter-Blue) in SW480 cells. Conditions: Homo sapiens, 96 h, four days, CellTiter-Blue, 10 μM to 0.0045 μM. Summed up:
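Approximately 2×10^3 SW480 cells per well are seeded with compound (8 points, threefold steps, top 10 μM) and incubated four days at 37 °C. CellTiter-Blue is then added for about 3 h and fluorescence read. Non-linear regression gives EC50; for values beyond 10 μM, percent inhibition at that concentration is listed.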
A general note: Alamar Blue is a resazurin reagent that responds to reducing activity.

The test system of assay [2] is primary human fibroblasts derived from IPF patients (LL29 cells) treated with TGF-β1. The assay is described as follows: Inhibition of the fibrotic process: αSMA staining in TGF-β1-treated LL29 fibroblasts. The conditions noted are these: Fibroblast; for EC50: 96 h, LL29 fibroblasts treated with TGF-β1 (20 ng/mL), 4 days, Table 4; for inhibition at 10 µM: LL29 fibroblasts treated with TGF-β1, Table 4, read-out: percent inhibition at 10 μM (given in parentheses for EC50 >10 μM). Summed up:
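IPF-derived LL29 fibroblasts in F12 with 1% FBS dosed with compound (11-point, 10 μM to 1.87 nM, 0.1% DMSO), then 20 ng/mL TGF-β1 after 1 h, and cultured 4 days at 37 °C. αSMA-positive cell fraction imaged after excluding SYTOX-positive cells, normalized to TGF-β1/DMSO wells; EC50 by non-linear regression, % inhibition at 10 μM if EC50 >10 μM.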

Molecules are shown by their SMILES. Where only a bound is given, the exact number is not on record here.

As a reminder, the EC50 is the midpoint of the concentration-response curve. The inhibition is the percentage by which the read-out fell short of the control.

In the case of `NC1CN(c2cncc(-c3ccc4[nH]nc(-c5nc6c(-c7cccc(F)c7)cccc6[nH]5)c4n3)n2)C1` [Compound 510, 1-(6-(3-(4-(3-Fluorophenyl)-1H-benzo[d]imidazol-2-yl)-1H-pyrazolo[4,3-b]pyridin-5-yl)pyrazin-2-yl)azetidin-3-amine], the EC50 in assay [1] turned out to be 3240 nM; in the assay on SW480 colon cancer cells, 952 nM; in assay [2], 4320 nM.
`Fc1cccc(-c2cccc3[nH]c(-c4n[nH]c5ccc(-c6cncc(OC7CCNCC7)c6)nc45)nc23)c1` [Compound 512, 3-(4-(3-Fluorophenyl)-1H-benzo[d]imidazol-2-yl)-5-(5-(piperidin-4-yloxy)pyridin-3-yl)-1H-pyrazolo[4,3-b]pyridine]: the EC50 in assay [1] is 2140 nM; in the assay on SW480 colon cancer cells, 2280 nM; in assay [2], 1540 nM.
On the same counts, the results for `Fc1cccc(-c2cccc3[nH]c(-c4n[nH]c5ccc(-c6cncc(OCCN7CCCC7)c6)nc45)nc23)c1` [Compound 514, 3-(4-(3-Fluorophenyl)-1H-benzo[d]imidazol-2-yl)-5-(5-(2-(pyrrolidin-1-yl)ethoxy)pyridin-3-yl)-1H-pyrazolo[4,3-b]pyridine] are 1170 nM, 1120 nM and 1060 nM.
With `CN(C)CCOc1cncc(-c2ccc3[nH]nc(-c4nc5c(-c6cccc(F)c6)cccc5[nH]4)c3n2)c1` [Compound 515, 2-((5-(3-(4-(3-Fluorophenyl)-1H-benzo[d]imidazol-2-yl)-1H-pyrazolo[4,3-b]pyridin-5-yl)pyridin-3-yl)oxy)-N,N-dimethylethan-1-amine], the 50% effective concentration (EC50) in assay [1] is 4670 nM; with SW480 colon cancer cells it was 1380 nM; in assay [2] it was 2540 nM.
With `COc1cncc(-c2ccc3[nH]nc(-c4nc5c(-c6cccc(F)c6)cccc5[nH]4)c3n2)c1` [Compound 516, 3-(4-(3-Fluorophenyl)-1H-benzo[d]imidazol-2-yl)-5-(5-methoxypyridin-3-yl)-1H-pyrazolo[4,3-b]pyridine], the EC50 in assay [1] was 923 nM; with SW480 colon cancer cells, 1160 nM; in assay [2], > 10000 nM. In assay [2], the inhibition at 10 µM came to 0%.
With `Oc1cncc(-c2ccc3[nH]nc(-c4nc5c(-c6cccc(F)c6)cccc5[nH]4)c3n2)c1` [Compound 517, 5-(3-(4-(3-Fluorophenyl)-1H-benzo[d]imidazol-2-yl)-1H-pyrazolo[4,3-b]pyridin-5-yl)pyridin-3-ol], the figures for the EC50 (in assay [1]; in the assay with SW480 colon cancer cells; in assay [2]) were 6550 nM, 4540 nM and 1540 nM, respectively.
On the same counts, the results for `c1cncc(-c2cccc3[nH]c(-c4n[nH]c5ccc(-c6cncc(OC7CCCCC7)c6)nc45)nc23)c1` [Compound 559, 5-(5-(Cyclohexyloxy)pyridin-3-yl)-3-(4-(pyridin-3-yl)-1H-benzo[d]imidazol-2-yl)-1H-pyrazolo[4,3-b]pyridine] are 3140 nM, 3310 nM and 2620 nM.
Consider `Oc1cncc(-c2ccc3[nH]nc(-c4nc5c(-c6cccnc6)cccc5[nH]4)c3n2)c1` [Compound 565, 5-(3-(4-(Pyridin-3-yl)-1H-benzo[d]imidazol-2-yl)-1H-pyrazolo[4,3-b]pyridin-5-yl)pyridin-3-ol], for which the EC50 was found to be 1450 nM in assay [1], 1140 nM in the assay on SW480 colon cancer cells and 1730 nM in assay [2].
The corresponding values for `c1cc(N2CCCCC2)c2nc(-c3n[nH]c4ccc(-c5cncc(OCCN6CCCC6)c5)nc34)[nH]c2c1` [Compound 610, 3-(4-(Piperidin-1-yl)-1H-benzo[d]imidazol-2-yl)-5-(5-(2-(pyrrolidin-1-yl)ethoxy)pyridin-3-yl)-1H-pyrazolo[4,3-b]pyridine] are 3050 nM, 2690 nM and 1970 nM.
Turning to `COc1cncc(-c2ccc3[nH]nc(-c4nc5c(N6CCCCC6)cccc5[nH]4)c3n2)c1` [Compound 612, 5-(5-Methoxypyridin-3-yl)-3-(4-(piperidin-1-yl)-1H-benzo[d]imidazol-2-yl)-1H-pyrazolo[4,3-b]pyridine], the EC50 in assay [1] was 3770 nM; in the assay on SW480 colon cancer cells it was 4050 nM; in assay [2] it was > 10000 nM. Further, the inhibition at 10 µM in assay [2] was 26.9%.
As to `Oc1cncc(-c2ccc3[nH]nc(-c4nc5c(N6CCCCC6)cccc5[nH]4)c3n2)c1` [Compound 613, 5-(3-(4-(Piperidin-1-yl)-1H-benzo[d]imidazol-2-yl)-1H-pyrazolo[4,3-b]pyridin-5-yl)pyridin-3-ol], the EC50 in assay [1] is 1550 nM; in the assay with SW480 colon cancer cells, 2710 nM; in assay [2] it was 3320 nM.
As to `CN1CCN(c2cccc3[nH]c(-c4n[nH]c5ccc(-c6cncc(OC7CCCCC7)c6)nc45)nc23)CC1` [Compound 639, 5-(5-(Cyclohexyloxy)pyridin-3-yl)-3-(4-(4-methylpiperazin-1-yl)-1H-benzo [d]imidazol-2-yl)-1H-pyrazolo[4,3-b]pyridine], the EC50 in assay [1] is 1030 nM; in the assay on SW480 colon cancer cells, 933 nM; in assay [2], 1360 nM.
As for `CN1CCN(c2cccc3[nH]c(-c4n[nH]c5ccc(-c6cncc(OCc7ccccc7)c6)nc45)nc23)CC1` [Compound 646, 5-(5-(Benzyloxy)pyridin-3-yl)-3-(4-(4-methylpiperazin-1-yl)-1H-benzo[d]imidazol-2-yl)-1H-pyrazolo[4,3-b]pyridine], the 50% effective concentration (EC50) amounted to 1060 nM in assay [1], 1040 nM in the assay with SW480 colon cancer cells and 1460 nM in assay [2].
